{
  "source": "patent US20240423957A1",
  "about": "“TOPICAL ANTI-INFLAMMATORY AND ANALGESIC COMPOSITIONS AND METHODS OF USE” (INSIGNIA PHARMACEUTICALS, LLC, priority 2023, published 2024)",
  "key": {"[1]": {"test_system": "Human osteoarthritic chondrocytes", "test": "Immunostaining of human osteoarthritic chondrocytes cultured 24 days on hyaluronic acid hydrogel (SOX9, Col2a1, ACAN)", "type": "cell-based", "text": "The chondrocytes were layered on top of a hyaluronic acid hydrogel ([…]®, Sanofi-Aventis, United States) to promote a three-dimensional culture environment. Following 24 days, the cells were fixed with paraformaldehyde and immunostained for SOX9, Col2a1, and ACAN."}, "[2]": {"test_system": "human chondrocyte spheroids", "test": "Morphology of human chondrocyte spheroids in hyaluronic acid hydrogel", "type": "cell-based"}, "[3]": {"settings": "cited from earlier work"}, "[4]": {"test_system": "Human osteoarthritic chondrocytes", "test": "Real-time RT-PCR of Col2a1 mRNA in human osteoarthritic chondrocytes cultured 20 days", "type": "cell-based", "settings": "delta-delta CT against GAPDH, actin, 18S rRNA", "method": "The chondrocytes were layered on top of a hyaluronic acid hydrogel ([…]®, Sanofi-Aventis, United States) to promote a three-dimensional culture environment. Following 20 days, hyaluronidase was added to release the cells from the hydrogel, the cells were collected, and total RNA was isolated."}, "[5]": {"test_system": "THP-1 macrophage-like cells", "test": "IL-1beta release (ELISA) from PMA-differentiated THP-1 macrophage-like cells", "type": "cell-based, human", "settings": "0.2 to 6 millimolar; activation with 100 ng/mL LPS 24 hours then 10 millimolar ATP 1 hour (FIG. 4)", "method": "(§1) The human monocyte cell line THP-1 was differentiated into macrophage-like cells with PMA for 72 hours. […] Cells were then activated with 100 nanograms per milliliter LPS for 24 hours followed by an additional hour with 10 millimolar adenosine triphosphate (ATP). IL-1beta release was quantified by enzyme-linked immunosorbent assay (ELISA)."}, "THP-1 cells": {"test_system": "THP-1 cells", "test": "Viability of PMA-differentiated THP-1 cells (optical density at 490 nanometers)", "type": "cell-based, human", "method": "as §1\nCell viability was also assessed by optical density at 490 nanometers (FIGS. 5A & 5B)."}, "[6]": {"settings": "high-density monolayers, ethanol vehicle, 0.1, 0.5 and 1 millimolar, 24 days"}},
  "note": "Entries after “also recorded” stand apart in the source; their conditions may differ.",
  "data": [
    {"compound": "CCCCCCCCCC(=O)O", "note": "[decanoic acid]", "values": [
      {"measurement": "ACAN immunostaining of chondrocyte spheroids", "setting": "[1]; 1 millimolar", "result": "strong ACAN immunostaining"},
      {"measurement": "SOX9 staining of spheroids", "setting": "[1]; 1 millimolar, 24 days", "result": "stained strongly for SOX9"},
      {"measurement": "spheroid development or condensation", "setting": "[1]; 1 millimolar, 24 days", "result": "enhanced spheroid development or condensation"},
      {"measurement": "concentration with peak Col2a1 staining", "setting": "[1]; high-density monolayers", "result": 0.5, "unit": "millimolar"},
      {"measurement": "nuclear staining for SOX9", "setting": "[1]; [6]", "result": "enhanced nuclear staining for SOX9 in a dose-dependent manner"},
      {"measurement": "punctate staining for ACAN", "setting": "[1]; [6]", "result": "dose-dependent punctate staining for ACAN"},
      {"measurement": "punctate staining for Col2a1", "setting": "[1]; [6]", "result": "dose-dependent punctate staining for Col2a1"},
      {"measurement": "concentration with strongest ACAN staining", "setting": "[1]; low-density monolayers", "result": 1, "unit": "millimolar"},
      {"measurement": "punctate immunostaining for Col2a1", "setting": "[1]; low-density monolayers, 1 millimolar", "result": "strong punctate immunostaining for Col2a1"},
      {"measurement": "spheroid morphology", "setting": "[2]; after 4 days of culture (FIGS. 2A & 2B)", "result": "promoted interconnected networks of spheroids; also recorded: generated interconnected networks that suspended the spheroids"},
      {"measurement": "spheroid morphology", "setting": "[2]; after 20 days of culture (FIGS. 3A & 3B)", "result": "large spheroid development or condensation"},
      {"measurement": "pKa", "setting": "[3]", "result": "about 4.9"},
      {"measurement": "increase in Col2a1 mRNA", "setting": "[4]; 0.5 millimolar", "result": 1, "unit": "fold"},
      {"measurement": "increase in Col2a1 mRNA", "setting": "[4]; 1 millimolar", "result": 7, "unit": "fold"},
      {"measurement": "IL-1beta release", "setting": "[5]", "result": "dose-dependent inhibition of IL-1beta release; also recorded: dose-dependent inhibition of IL-1beta concentrations"},
      {"measurement": "cell viability", "setting": "THP-1 cells; 6 millimolar (FIGS. 5A & 5B)", "result": "unfavorable effect on viability; also recorded: significant decrease in viability"},
      {"measurement": "cell viability", "setting": "THP-1 cells; concentrations below 6 millimolar (from 0.19 millimolar), relative to vehicle controls", "result": "no lower concentration of decanoic acid reduced cell viability"}
    ]}
  ]
}
